Legend:
goblet cells = assay: Test for confirming synergetic expectorant effect: number of goblet cells in the air tube after intratracheal LPS; format: in vivo, Fischer (F334) rats; details: for Number of goblet cells: counted three days after LPS; for expectorant effect (number of goblet cells), result in words: summary of Table 1
Text: Improvement of the expectorant effect by using fudosteine and an antipyretic/analgesic in combination was confirmed by the method described below. Seven 12-week-old male Fischer ([…]) rats for one group were used as test animals. The rats were anesthetized with pentobarbital and their skin was disinfected using the Isodine solution for surgery. The trachea of the rats was exposed by midline incision. The injection needle ([…], Hamilton) attached to a Hamilton injection syringe was inserted from the pharynx to inject lipopolysaccharide (LPS, 10 μg/500 μl) into the air tube. The samples of which the components and dose are shown in Table 1 were dissolved or suspended in a 0.5% CMC-Na solution. The solution or suspension was orally administered to the rats three times in total, specifically, 30 minutes before administering LPS, 24 hours after administering LPS, and 48 hours after administering LPS. Three days after administering LPS, the rats were bled to death by cutting the abdominal aorta under pentobarbital anesthesia. A part of the air tube and bronchial tube was removed and fixed with a 10% neutral buffered formalin solution. The fixed bronchial tube was embedded in paraffin according to a conventional method. The air tube was cut into slices in the cross-section. The slices were stained with alcian blue/PAS (AB/PAS). The AB/PAS stained samples of each air tube were microscopically examined to measure the number of goblet cells according to the reported procedure (Enviromn. Tixicol. Pharmacol., vol. 5, p. 173, 1998).

Wistar rats = assay: Test for confirming synergetic antiinflammatory effect: carrageenan footpad edema; format: in vivo; details: for Edema ratio (%): four hours after carrageenan; for antiinflammatory effect, result in words: summary of Table 2
Method: Improvement on the antiinflammatory effect by using fudosteine and an antipyretic/analgesic in combination was confirmed by the method described below. Five five-week-old male Wistar rats for one group were used as test animals. The samples of which the components and dose are shown in Table 2 were dissolved or suspended in a 0.5% CMC-Na solution. The solution or suspension was orally administered to the rats once a day in five consecutive days. Two hours after the administration on the last administration day, 0.1 ml of an inflammatory (carrageenan) was hypodermically injected into the right hind footpad of the rats. The limb volume of the rats was measured four hours after injecting the inflammatory. The edema ratio was calculated based on the limb volume before injecting the inflammatory. The rats were coated with a licking prevention hood, followed by measuring the right hind limb volume using a plethysmometer (manufactured by Ugo Basile).

[1] = 100 mg/kg orally once a day for five days

| SMILES | Number of goblet cells (goblet cells; 30 mg/kg orally, three times (30 min before, 24 h and 48 h after LPS)) | expectorant effect (number of goblet cells), result in words (goblet cells) | Edema ratio (%) (Wistar rats; [1]) | Edema ratio (%) (Wistar rats; 200 mg/kg orally once a day for five days) | antiinflammatory effect, result in words (Wistar rats) | Number of goblet cells (goblet cells; 100 mg/kg orally, three times) | Number of goblet cells (goblet cells; 200 mg/kg orally, three times) | Edema ratio (%) (Wistar rats; 50 mg/kg orally once a day for five days) | Number of goblet cells (goblet cells; 50 mg/kg orally, three times) |
| --- | --- | --- | --- | --- | --- | --- | --- | --- | --- |
| N[C@@H](CSCCCO)C(=O)O [Fudosteine, S-(3-hydroxypropyl)-L-cysteine] | 75.7 ± 1.3 | exhibited an expectorant effect | – | – | – | – | – | – | – |
| CC(=O)Nc1ccc(O)cc1 [Acetaminophen, acetaminophen] | – | did not exhibit an expectorant effect | 70.6 ± 0.68 % | 60.6 ± 0.88 ^b) % | dose-dependent antiinflammatory effect | 125.7 ± 2.4 | 122.9 ± 1.7 | – | – |
| CC(C)Cc1ccc(C(C)C(=O)O)cc1 (centres unmarked) [Ibuprofen, ibuprofen] | – | did not exhibit an expectorant effect | 60.6 ± 0.79 ^a) % | – | dose-dependent antiinflammatory effect | 124.3 ± 2.0 | – | 70.6 ± 0.89 | 124.9 ± 1.8 |
